Here are results for 9 compounds from PubChem BioAssay (NCI).

Several values for one entry are separate records, joined by “and”; a condition that tells them apart may be missing. Equal values may be shown once.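 Method: 48-hour compound exposure of cells in 96-well plates, five concentrations, linear interpolation of endpoints. GI50 is the concentration that inhibits growth by half. TGI denotes the concentration required for complete inhibition of growth.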

Holding throughout (assay): NCI-60 cell line screen, 48 h
The subject of test [1] is IGROV1 ovarian.
The subject of test [2] is SK-MEL-5 melanoma.
The test system of test [3] is HS 578T breast.
Test [4] has as its system MALME-3M melanoma.
In test [5] the test system is A498 renal.
The test system of test [6] is NCI-H23 lung.
Test [7] has as its system RPMI-8226 leukemia.
For test [8], the system named is DU-145 prostate.
Test [9] concerns EKVX NSCLC.
The subject of test [10] is HCT-15 colon.

Regarding `CCN(CCO)CC1CCCC2CCCCC21` (stereo not given), the TGI in [1], in test [2], in [3], in test [4], in [5] and in [6] was over 100 µM each time. The TGI in test [7], in [8], in [9] and in test [10] was over 100 µM throughout.

Consider `O=C(Nc1ccc(Cl)c(Cl)c1)Nc1ccc(Cl)c(Cl)c1`, for which the GI50 in test [1] is 4.2 µM and 3.36 µM; in [2] it was 1.74 µM and 1.77 µM; in test [3], 3.29 µM and 2.08 µM; in test [4], 2.22 µM and 2.44 µM; in [6] it was 2.63 µM and 2.4 µM; in test [7], 1.79 µM and 0.997 µM. The GI50 in test [8] is 4.03 µM and 4.34 µM; in test [9] it was 2.36 µM; in [10] it was 2.9 µM and 3.01 µM. The TGI in [1] is 22.2 µM and 10.5 µM; in test [2], 3.35 µM and 3.18 µM; in test [3], 19.3 µM and 6.88 µM; in test [4] it was 5.95 µM and 6.58 µM; in test [5] it was 2.79 µM and 5.18 µM; in test [6] it was 10.2 µM and 11.4 µM. In addition, the TGI is 6.99 µM and 5.33 µM in test [7]; 14.4 µM and 16.2 µM in [8]; 11.1 µM in test [9]; 11.9 µM and 11.2 µM in test [10].

On to `NC(=O)c1cccc2cn(-c3ccc([C@@H]4CCCNC4)cc3)nc12`, for which the GI50 was 15.3 µM in test [1]; 13.8 µM in test [2]; 21.5 µM in [3]; 15.2 µM in test [4]; 19.2 µM in test [5]; 11.3 µM in test [6]. Moreover, the GI50 in [7] is 22.5 µM; in test [8] it was 8.97 µM; in [9], 19.7 µM; in test [10], 14.8 µM. Further, the TGI in test [1] stood at 52.3 µM; in test [2], 27 µM; in [3], 76.7 µM; in test [4] it was 30.5 µM; in [5] it was 40.8 µM; in test [6] it was 45 µM. Moreover, the TGI in test [7] was over 80.6 µM; in test [8], 21.9 µM; in [9], 64.2 µM; in test [10] it was 45.5 µM.

Regarding `CC12CCC(O)CC1CCC1C2CCC2(C)C(C3=CC(=O)OC3)CCC12O` (stereo not given), the TGI in test [1] was 19.4 µM; in test [2], 1.98 µM; in [3] it was over 100 µM; in test [4], 4.89 µM; in test [5], 25.6 µM; in test [6] it was 4.76 µM. The TGI in [7] is over 30 µM; in test [8], 2.85 µM; in [9] it was 5.88 µM; in test [10], 5.75 µM. Also, the GI50 in test [10] is 2.39 µM.

In the case of `Cn1cnc([N+](=O)[O-])c1Sc1nnc(-c2cccnc2)n1C`, the TGI in [1] is over 100 µM; in [2], 35.4 µM; in [3], over 89.4 µM; in test [4], 33.2 µM; in test [5] it was over 100 µM; in [6], 51.7 µM. The TGI is 49.4 µM in test [7], over 80.7 µM in test [8], 66.4 µM in [9] and 36.2 µM in [10].

Take `O=C1CC(c2ccc3c(c2)OCO3)Nc2ccccc21` (stereo not given): the GI50 in [1] is 10.9 µM; in test [2], 12.6 µM; in test [3], 17.8 µM; in test [4], 14.5 µM; in test [5], 13.4 µM; in [6], 12.2 µM. Also, the GI50 was 3.05 µM in test [7], 3.1 µM in test [8], 11.8 µM in [9] and 5.61 µM in [10]. In addition, the TGI in test [1] is 47.8 µM; in test [2] it was 25.8 µM; in test [3], 77 µM; in [4] it was 30.2 µM; in [5] it was 28.7 µM; in test [6] it was 32.7 µM. For the same compound, the TGI in test [7] stood at 13.3 µM; in test [8], 12.6 µM; in test [9] it was 46.4 µM; in [10], 31 µM.

`Cc1ccc(C(=O)/C(=C/c2ccc([N+](=O)[O-])cc2)SCc2ccc(Cl)cc2)cc1`: the GI50 in test [1] was 2.23 µM; in test [2], 2.34 µM; in test [3] it was 2.14 µM; in test [4] it was 4.34 µM; in [5] it was 24 µM; in [6] it was 2.73 µM. In addition, the GI50 in test [7] was 0.24 µM; in [8], 5.33 µM; in [9] it was 3.04 µM; in test [10] it was 0.565 µM. The TGI in test [1] was 8.6 µM; in test [2] it was 6.43 µM; in test [3], 6.96 µM; in [4] it was 19.2 µM; in test [5] it was over 100 µM; in test [6] it was 20.7 µM. Moreover, the TGI in test [7] was 0.696 µM; in test [8] it was over 100 µM; in [9], 13.9 µM; in test [10] it was 2.69 µM.

As for `CO[C@H](C(=O)[C@@H](O)[C@@H](C)O)[C@@H]1Cc2cc3cc(O[C@H]4C[C@@H](O[C@H]5C[C@@H](O)[C@H](O)C(C)O5)[C@H](O)C(C)O4)c(C)c(O)c3c(O)c2C(=O)[C@H]1O[C@H]1C[C@@H](O[C@H]2C[C@@H](O[C@H]3C[C@](C)(O)C(=O)C(C)O3)[C@@H](O)C(C)O2)[C@H](O)C(C)O1` (stereo not given in full), the GI50 was 0.132 µM in test [1]; 0.0385 µM in test [2]; 0.0723 µM in test [3]; 0.0388 µM in [4]; 0.0185 µM in test [5]; 0.0771 µM in test [6]. In addition, the GI50 in test [7] is 0.1 µM; in test [8], 0.127 µM; in test [9], 0.168 µM; in test [10], 0.889 µM. Also, the TGI in test [1] was over 33.2 µM; in [2], 0.136 µM; in [3], 8.25 µM; in [4], 0.28 µM; in test [5], 0.147 µM; in [6] it was 1.07 µM. Besides, the TGI in [7] is 1.61 µM; in [8] it was over 33.2 µM; in test [9] it was over 12.3 µM; in test [10], over 33.2 µM.

On to `Nc1ccccc1SC(C[N+](=O)[O-])c1ccc2c(c1)OCO2` (stereo not given), for which the TGI in test [1] worked out at 3.2 µM; in test [2] it was 15.3 µM; in [3] it was 36.8 µM; in [4], 29.8 µM; in test [5], 20.6 µM; in test [6], 8.04 µM. Moreover, the TGI in [7] was determined as 4.42 µM; in test [8], 8.77 µM; in test [9] it was 13.3 µM; in test [10], 10.3 µM.
